Measurements published in patent US6803382B2, “Angiogenesis inhibitors and pharmaceutical and cosmetic use thereof” (Galderma Research & Development, S.N.C., priority 2001, dated 2004).

Experiments:
[1] = system: Endothelial Cells Isolated from the Vein of Umbilical Cords; experiment: Inhibition of endothelial cell proliferation by DNA synthesis reinitiation (b-Fgf, tritiated thymidine); type: cell-based; settings: b-Fgf-stimulated tritiated thymidine incorporation, 24 h at 37° C., serum free medium, IC50 determined graphically
Protocol: The anti-angiogenic activity of the compounds according to the invention may also be measured by means of their capacity to inhibit the proliferation of endothelial cells. This activity is determined in Example 13 of the present patent application.
b) Measurement of the Inhibition of the Proliferation in Endothelial Cells Isolated from the Vein of Umbilical Cords (Prepared at the Laboratory) by DNA Synthesis Reinitiation
The cells are seeded in complemented SFM medium (Gibco). When the cells reach the confluence, the growth is stopped by 2 washes in serum free medium and handing-over in serum free medium for 24 h. After trypsination, they are seeded in 48 wells plates: 50.000 cells per well in 500 μl.
The reinitiation of DNA synthesis is performed 6 hours after, in presence of 50 μg/ml b-Fgf by well with increasing amounts of inhibitor to be tested in the serum free medium and containing the tritiated thymidine (b-Fgf is prepared at the laboratory).
The cells are incubated 24 h at 37° C. and the radioactivity is measured with a Wallac counter. Each test is performed in duplicate and the result is the average of the counted number of cpms. The curve showing measured radioactivity function to increasing amount of inhibitors allows to determine graphically the value of IC50.

Human MetAP-2 = biological target: T1, Human MetAP-2 (Homo sapiens, UniProt P50579); experiment: Inhibition of human MetAP-2 (recombinant enzyme, Met-Ala-Ser substrate); type: biochemical; settings: recombinant MetAP-2, substrate Met-Ala-Ser 1 mM, 37° C., Hepes pH 7.4, 0.5 mM CoCl2
T1 construct: made in house
T1 sequence (P50579 whole entry): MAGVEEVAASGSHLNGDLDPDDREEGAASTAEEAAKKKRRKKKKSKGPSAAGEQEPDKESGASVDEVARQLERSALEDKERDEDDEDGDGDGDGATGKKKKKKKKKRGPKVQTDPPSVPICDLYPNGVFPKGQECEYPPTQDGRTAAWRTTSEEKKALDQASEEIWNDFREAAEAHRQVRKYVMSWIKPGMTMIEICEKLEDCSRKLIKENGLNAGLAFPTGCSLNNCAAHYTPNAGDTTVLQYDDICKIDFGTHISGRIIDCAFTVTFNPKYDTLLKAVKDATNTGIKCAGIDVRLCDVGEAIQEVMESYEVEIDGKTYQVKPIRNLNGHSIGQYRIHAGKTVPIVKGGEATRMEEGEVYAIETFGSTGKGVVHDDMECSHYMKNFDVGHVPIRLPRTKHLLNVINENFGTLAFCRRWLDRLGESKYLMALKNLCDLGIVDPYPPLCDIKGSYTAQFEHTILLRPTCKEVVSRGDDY
Protocol: By way of example, the biological activity of the compounds is evaluated by measuring their inhibitory activity on methionine aminopeptidase MetAP-2 (Li, X., Chang, Y-H. Biochem. Biophys. Res. Comm. 1996, 227, 152).
The biological activity is characterized in this system by determining the concentration of compound required to inhibit 50% of the enzymatic activity (IC50). The test protocol used is described in Example 13 of the present patent application.
a) Measurement of the Inhibition of Human MetAP-2
Recombinant MetAP-2 is obtained and purified according to the method described by Li and Chang (Li, X.; Chang, Y-H. Biochem. Biophys. Res. Comm. 1996, 227, 152).
The tests are carried out in buffer A (Hepes buffer, 10 mM, pH 7.4, 0.5 mM CoCl2 containing 10% glycerol) using the peptide Met-Ala-Ser as substrate (Km=0.7 mM).
a. The enzymatic activity is measured as follows: the substrate solution is added to a suitable amount of enzyme such that the final concentration is 1 mM, and the mixture is incubated at 37° C. for 10-30 minutes. The reaction is quenched by adding 100 mM EDTA solution or by heating in a boiling water bath for two minutes.
b. The N-terminal methionine released is quantified by measuring the absorbance at 450 nm (A450) by incubating for 30-60 minutes at 37° C. with the following coloured reagent: buffer B (Hepes buffer, 10 mM, pH 7.4) (Ben-Bassat A.; Bauer K.: Chang S. Y. et al., J. Bacteriol. 1987, 169, 751-757), containing 70 μg/mL of amino acid oxidase, 10 μg/mL of horseradish peroxidase and 1 mM of o-dianisidine. The activities are expressed as mmol of methionine produced, using the conversion factor of 1 mmol of methionine/mL=8.6A450
Determination of the IC50
The IC50 values are determined by incubating the enzyme and its substrate (using the experimental conditions described above) with increasing concentrations of inhibitor.
The control is 5-methoxy-4-[2-methyl-3-(3-methylbut-2-enyl)oxiranyl]-1-oxaspiro[2.5]octan-6-yl 4-methoxycinnamate described in the publication by Han et al., Bioorganic & Medicinal Chemistry Letters, 2000, 10, 39-43.

IC50 (Human MetAP-2) [nM]	Compound	IC50 [1] [nM]	IC50 ([1]; Endothelial cell) [nM]
35	COc1ccc(C=CC(=O)OC2CCC3(CO3)C(C3(C)OC3CC=C(C)C)C2OC)cc1 (centres unmarked) [Control, 5-methoxy-4-[2-methyl-3-(3-methylbut-2-enyl)oxiranyl]-1-oxaspiro[2.5]octan-6-yl 4-methoxycinnamate]	10	
15	COc1ccc(/C=C/C(=O)O[C@@H]2CC[C@]3(CO3)[C@@H](/C(C)=C/CCC(C)C)[C@@H]2OC)cc1 [Example 2]		1
10	CO[C@@H]1[C@H](OC(=O)/C=C/C=C/C=C/C=C/C(=O)O)CC[C@]2(CO2)[C@H]1[C@@]1(C)O[C@@H]1CC=C(C)C [Fumagillin]		
